Measurements: ChEMBL document CHEMBL4145687, “Novel Scaffolds for Dual Specificity Tyrosine-Phosphorylation-Regulated Kinase (DYRK1A) Inhibitors” (J Med Chem, 2018)
The source made the active and inactive calls. The calls are words filed in the database; no cut-off is given here.

How the values were obtained:
[1] = biological target: T1, Dual specificity tyrosine-phosphorylation-regulated kinase 1A (Homo sapiens, UniProt Q13627); assay: Inhibition of EGFP-tagged DYRK1A (unknown origin) expressed in human NCI-H1299 cells expressing FLAG-tagged tau assessed as reduction in tau T212 phosphorylation at 1 to 10 uM incubated for 2 hrs by Western blot analysis; assay type: cell-based
[2] = biological target: Dual specificity protein kinase CLK2 (Homo sapiens) (UniProt P49760); assay: Inhibition of human CLK2 expressed in bacterial expression system at 10 uM
[3] = biological target: T1, Dual specificity tyrosine-phosphorylation-regulated kinase 1A; assay: Inhibition of DYRK1A (unknown origin) using DYRKtide as substrate by ATP regenerative NADH consuming assay
[4] = biological target: Cyclin-dependent kinase 7 (Homo sapiens) (UniProt P50613); assay: Inhibition of human CDK7 expressed in mammalian expression system at 10 uM
[5] = biological target: Glycogen synthase kinase-3 beta (Homo sapiens) (UniProt P49841); assay: Inhibition of human GSK3beta expressed in mammalian expression system at 10 uM
[6] = biological target: Homeodomain-interacting protein kinase 1 (Homo sapiens) (UniProt Q86Z02); assay: Inhibition of human HIPK1 expressed in mammalian expression system at 10 uM
[7] = biological target: T1, Dual specificity tyrosine-phosphorylation-regulated kinase 1A; assay: Inhibition of DYRK1A (unknown origin) assessed as remaining enzyme activity at 20 uM using DYRKtide as substrate by ATP regenerative NADH consuming assay
[8] = biological target: T1, Dual specificity tyrosine-phosphorylation-regulated kinase 1A; assay: Inhibition of human DYRK1A expressed in HEK293 cells assessed as compound concentration causing 1.5 fold […] by NFAT response element-driven luciferase reporter gene assay relative to basal level; assay type: cell-based
[9] = biological target: Homeodomain-interacting protein kinase 2 (Homo sapiens) (UniProt Q9H2X6); assay: Inhibition of human HIPK2 expressed in mammalian expression system at 10 uM
[10] = biological target: T2, Serine/threonine-protein kinase 17A (Homo sapiens) (UniProt Q9UEE5); assay: Inhibition of human DRAK1 expressed in bacterial expression system at 10 uM
T2 sequence (whole entry): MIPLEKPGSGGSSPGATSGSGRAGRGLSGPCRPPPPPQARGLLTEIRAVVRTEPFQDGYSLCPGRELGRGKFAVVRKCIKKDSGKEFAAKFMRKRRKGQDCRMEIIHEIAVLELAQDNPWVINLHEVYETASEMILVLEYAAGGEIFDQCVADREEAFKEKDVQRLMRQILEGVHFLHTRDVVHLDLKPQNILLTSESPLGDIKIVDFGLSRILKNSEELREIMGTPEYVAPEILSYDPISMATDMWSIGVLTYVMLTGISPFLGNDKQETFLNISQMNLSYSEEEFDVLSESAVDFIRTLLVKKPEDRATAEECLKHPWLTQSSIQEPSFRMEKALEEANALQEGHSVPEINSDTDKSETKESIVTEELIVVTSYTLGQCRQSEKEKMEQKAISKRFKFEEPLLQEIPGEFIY

[11] = biological target: Mitogen-activated protein kinase 7 (Homo sapiens) (UniProt Q13164); assay: Inhibition of human ERK5 expressed in bacterial expression system at 10 uM
[12] = biological target: T1, Dual specificity tyrosine-phosphorylation-regulated kinase 1A; assay: Inhibition of human DYRK1A expressed in HEK293 cells assessed as […] at 1 uM by NFAT response element-driven luciferase reporter gene assay relative to harmine; assay type: cell-based
[13] = biological target: T3, Serine/threonine-protein kinase 17B (Homo sapiens) (UniProt O94768); assay: Inhibition of human DRAK2 expressed in bacterial expression system at 10 uM
T3 sequence (whole entry): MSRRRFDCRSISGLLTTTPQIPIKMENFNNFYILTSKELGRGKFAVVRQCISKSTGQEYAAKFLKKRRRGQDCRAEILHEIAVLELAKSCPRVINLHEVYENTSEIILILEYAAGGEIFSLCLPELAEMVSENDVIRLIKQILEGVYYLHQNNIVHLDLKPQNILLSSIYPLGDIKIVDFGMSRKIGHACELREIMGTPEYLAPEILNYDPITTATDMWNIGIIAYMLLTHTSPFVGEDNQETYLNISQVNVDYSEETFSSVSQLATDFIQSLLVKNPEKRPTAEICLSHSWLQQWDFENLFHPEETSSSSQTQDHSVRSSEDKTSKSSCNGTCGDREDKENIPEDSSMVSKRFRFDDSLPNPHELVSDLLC

[14] = biological target: Platelet-derived growth factor receptor alpha (Homo sapiens) (UniProt P16234); assay: Inhibition of human PDGFRalpha expressed in mammalian expression system at 10 uM
[15] = biological target: Tyrosine-protein kinase ABL1 (Homo sapiens) (UniProt P00519); assay: Inhibition of human ABL1 at 10 uM
[16] = biological target: Platelet-derived growth factor receptor beta (Homo sapiens) (UniProt P09619); assay: Inhibition of human PDGFRbeta expressed in bacterial expression system at 10 uM
[17] = biological target: Phosphatidylinositol 4,5-bisphosphate 3-kinase catalytic subunit gamma isoform (Homo sapiens) (UniProt P48736); assay: Inhibition of human PIK3CG expressed in mammalian expression system at 1 uM
[18] = biological target: Glycogen synthase kinase-3 alpha (Homo sapiens) (UniProt P49840); assay: Inhibition of human GSK3A expressed in bacterial expression system at 1 uM
[19] = biological target: Dual specificity protein kinase CLK3 (Homo sapiens) (UniProt P49761); assay: Inhibition of human CLK3 expressed in bacterial expression system at 1 uM
[20] = biological target: Phosphatidylinositol 4-kinase beta (Homo sapiens) (UniProt Q9UBF8); assay: Inhibition of human PIK4CB expressed in mammalian expression system at 1 uM
[21] = biological target: Glycogen synthase kinase-3 beta (Homo sapiens) (UniProt P49841); assay: Inhibition of human GSK3beta expressed in mammalian expression system at 1 uM
[22] = biological target: T1, Dual specificity tyrosine-phosphorylation-regulated kinase 1A; assay: Inhibition of human DYRK1A expressed in HEK293 cells assessed as […] at 0.1 uM by NFAT response element-driven luciferase reporter gene assay relative to harmine; assay type: cell-based
[23] = biological target: Serine/threonine-protein kinase mTOR (Homo sapiens) (UniProt P42345); assay: Inhibition of human mTOR expressed in mammalian expression system at 10 uM
[24] = biological target: Dual specificity protein kinase CLK1 (Homo sapiens) (UniProt P49759); assay: Inhibition of human CLK1 expressed in bacterial expression system at 1 uM
[25] = biological target: T1, Dual specificity tyrosine-phosphorylation-regulated kinase 1A; assay: Inhibition of human DYRK1A expressed in mammalian expression system at 1 uM
[26] = biological target: Dual specificity tyrosine-phosphorylation-regulated kinase 1B (Homo sapiens) (UniProt Q9Y463); assay: Inhibition of human DYRK1B expressed in bacterial expression system at 1 uM

Chain of Dual specificity protein kinase CLK2 (Homo sapiens) (P49760 whole entry, looked up): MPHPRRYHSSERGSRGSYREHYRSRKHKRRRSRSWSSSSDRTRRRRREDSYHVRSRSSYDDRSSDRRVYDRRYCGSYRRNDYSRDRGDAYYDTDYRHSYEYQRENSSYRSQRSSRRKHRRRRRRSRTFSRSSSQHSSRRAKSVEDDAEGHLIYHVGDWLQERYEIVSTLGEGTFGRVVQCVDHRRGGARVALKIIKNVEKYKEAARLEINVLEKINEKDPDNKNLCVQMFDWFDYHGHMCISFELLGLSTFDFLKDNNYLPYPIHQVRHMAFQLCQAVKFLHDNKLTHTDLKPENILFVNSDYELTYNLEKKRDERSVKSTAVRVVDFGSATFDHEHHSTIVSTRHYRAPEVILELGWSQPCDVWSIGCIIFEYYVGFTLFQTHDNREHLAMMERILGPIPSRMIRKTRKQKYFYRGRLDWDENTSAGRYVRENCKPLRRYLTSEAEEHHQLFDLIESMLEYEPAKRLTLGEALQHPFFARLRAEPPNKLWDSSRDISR
Chain of Glycogen synthase kinase-3 beta (Homo sapiens) (P49841 whole entry, looked up): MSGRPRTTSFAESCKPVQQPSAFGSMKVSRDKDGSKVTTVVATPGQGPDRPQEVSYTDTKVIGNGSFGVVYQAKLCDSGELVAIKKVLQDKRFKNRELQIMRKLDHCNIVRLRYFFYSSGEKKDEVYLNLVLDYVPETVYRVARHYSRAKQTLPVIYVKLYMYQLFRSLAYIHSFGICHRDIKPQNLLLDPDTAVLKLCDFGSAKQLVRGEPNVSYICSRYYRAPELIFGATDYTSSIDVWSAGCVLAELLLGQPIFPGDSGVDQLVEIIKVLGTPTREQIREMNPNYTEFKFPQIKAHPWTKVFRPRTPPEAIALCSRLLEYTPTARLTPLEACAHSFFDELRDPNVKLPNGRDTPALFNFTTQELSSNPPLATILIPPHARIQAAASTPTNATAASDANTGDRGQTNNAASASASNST
Chain of Platelet-derived growth factor receptor alpha (Homo sapiens) (P16234 whole entry): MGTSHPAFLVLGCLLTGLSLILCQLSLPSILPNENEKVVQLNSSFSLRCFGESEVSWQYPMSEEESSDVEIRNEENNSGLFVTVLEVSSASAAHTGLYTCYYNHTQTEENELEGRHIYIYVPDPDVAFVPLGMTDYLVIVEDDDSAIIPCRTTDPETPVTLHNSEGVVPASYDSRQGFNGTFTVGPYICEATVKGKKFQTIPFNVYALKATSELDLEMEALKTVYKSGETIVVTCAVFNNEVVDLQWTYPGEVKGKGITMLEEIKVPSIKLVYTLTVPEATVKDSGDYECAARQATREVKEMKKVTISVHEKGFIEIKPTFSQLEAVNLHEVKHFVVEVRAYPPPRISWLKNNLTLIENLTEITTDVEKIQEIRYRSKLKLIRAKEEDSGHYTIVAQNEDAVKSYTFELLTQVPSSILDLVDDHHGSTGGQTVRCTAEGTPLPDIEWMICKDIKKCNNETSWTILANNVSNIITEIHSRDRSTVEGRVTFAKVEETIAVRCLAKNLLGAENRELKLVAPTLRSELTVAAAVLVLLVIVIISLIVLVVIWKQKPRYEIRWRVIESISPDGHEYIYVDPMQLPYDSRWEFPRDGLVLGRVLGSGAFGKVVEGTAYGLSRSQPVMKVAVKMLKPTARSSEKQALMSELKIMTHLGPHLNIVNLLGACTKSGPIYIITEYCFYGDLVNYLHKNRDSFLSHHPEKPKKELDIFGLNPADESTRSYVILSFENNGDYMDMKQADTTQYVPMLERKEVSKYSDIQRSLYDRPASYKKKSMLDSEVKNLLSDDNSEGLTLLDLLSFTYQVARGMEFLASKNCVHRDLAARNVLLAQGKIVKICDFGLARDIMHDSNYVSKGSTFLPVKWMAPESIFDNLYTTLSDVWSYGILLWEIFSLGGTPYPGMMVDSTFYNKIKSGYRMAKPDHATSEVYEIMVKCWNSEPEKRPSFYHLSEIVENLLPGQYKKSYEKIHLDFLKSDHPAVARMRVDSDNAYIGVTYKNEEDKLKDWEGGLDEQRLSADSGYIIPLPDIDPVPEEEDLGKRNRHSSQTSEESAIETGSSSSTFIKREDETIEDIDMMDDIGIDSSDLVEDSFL
Chain of Dual specificity protein kinase CLK1 (Homo sapiens) (P49759 whole entry, looked up): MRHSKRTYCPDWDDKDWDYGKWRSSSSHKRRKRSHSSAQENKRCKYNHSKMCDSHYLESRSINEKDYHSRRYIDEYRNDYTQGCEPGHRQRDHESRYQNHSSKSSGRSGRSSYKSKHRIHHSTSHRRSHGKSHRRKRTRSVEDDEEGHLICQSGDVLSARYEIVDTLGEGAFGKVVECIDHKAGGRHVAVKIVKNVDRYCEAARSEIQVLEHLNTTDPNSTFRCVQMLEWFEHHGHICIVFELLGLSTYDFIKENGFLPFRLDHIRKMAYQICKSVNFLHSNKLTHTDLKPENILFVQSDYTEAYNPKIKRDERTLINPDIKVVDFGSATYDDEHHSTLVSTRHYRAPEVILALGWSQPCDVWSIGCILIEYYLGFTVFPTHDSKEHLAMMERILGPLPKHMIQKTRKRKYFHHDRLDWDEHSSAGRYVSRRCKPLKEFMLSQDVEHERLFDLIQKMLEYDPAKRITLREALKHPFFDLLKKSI
Chain of Platelet-derived growth factor receptor beta (Homo sapiens) (P09619 whole entry, canonical isoform): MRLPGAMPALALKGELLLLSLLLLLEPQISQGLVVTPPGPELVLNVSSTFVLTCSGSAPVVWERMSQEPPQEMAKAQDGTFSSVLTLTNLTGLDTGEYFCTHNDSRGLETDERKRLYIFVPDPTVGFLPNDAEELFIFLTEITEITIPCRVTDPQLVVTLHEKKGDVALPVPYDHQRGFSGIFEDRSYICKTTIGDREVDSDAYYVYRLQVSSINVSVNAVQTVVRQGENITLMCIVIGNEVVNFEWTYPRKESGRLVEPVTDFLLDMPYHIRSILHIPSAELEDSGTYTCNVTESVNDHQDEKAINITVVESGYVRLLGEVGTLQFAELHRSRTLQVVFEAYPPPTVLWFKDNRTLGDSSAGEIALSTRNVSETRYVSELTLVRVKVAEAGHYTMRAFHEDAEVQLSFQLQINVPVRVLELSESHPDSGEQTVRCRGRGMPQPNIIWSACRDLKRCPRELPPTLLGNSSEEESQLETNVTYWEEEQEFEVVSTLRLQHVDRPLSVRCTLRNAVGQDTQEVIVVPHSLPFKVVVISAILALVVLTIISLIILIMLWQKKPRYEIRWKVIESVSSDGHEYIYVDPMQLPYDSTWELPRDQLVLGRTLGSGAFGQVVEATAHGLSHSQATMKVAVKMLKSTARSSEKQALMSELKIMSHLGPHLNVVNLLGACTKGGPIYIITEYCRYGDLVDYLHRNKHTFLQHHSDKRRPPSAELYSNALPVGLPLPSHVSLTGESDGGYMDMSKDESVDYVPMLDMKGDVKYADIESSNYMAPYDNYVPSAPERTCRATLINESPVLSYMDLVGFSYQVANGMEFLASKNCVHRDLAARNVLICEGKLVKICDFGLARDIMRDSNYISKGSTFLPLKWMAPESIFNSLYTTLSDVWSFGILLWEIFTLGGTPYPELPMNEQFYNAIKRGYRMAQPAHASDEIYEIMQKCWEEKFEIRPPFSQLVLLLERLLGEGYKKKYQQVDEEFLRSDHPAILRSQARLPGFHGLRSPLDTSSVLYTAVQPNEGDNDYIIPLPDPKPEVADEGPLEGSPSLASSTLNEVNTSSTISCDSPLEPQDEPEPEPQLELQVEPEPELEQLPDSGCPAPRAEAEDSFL
Chain of Homeodomain-interacting protein kinase 1 (Homo sapiens) (Q86Z02 whole entry, looked up): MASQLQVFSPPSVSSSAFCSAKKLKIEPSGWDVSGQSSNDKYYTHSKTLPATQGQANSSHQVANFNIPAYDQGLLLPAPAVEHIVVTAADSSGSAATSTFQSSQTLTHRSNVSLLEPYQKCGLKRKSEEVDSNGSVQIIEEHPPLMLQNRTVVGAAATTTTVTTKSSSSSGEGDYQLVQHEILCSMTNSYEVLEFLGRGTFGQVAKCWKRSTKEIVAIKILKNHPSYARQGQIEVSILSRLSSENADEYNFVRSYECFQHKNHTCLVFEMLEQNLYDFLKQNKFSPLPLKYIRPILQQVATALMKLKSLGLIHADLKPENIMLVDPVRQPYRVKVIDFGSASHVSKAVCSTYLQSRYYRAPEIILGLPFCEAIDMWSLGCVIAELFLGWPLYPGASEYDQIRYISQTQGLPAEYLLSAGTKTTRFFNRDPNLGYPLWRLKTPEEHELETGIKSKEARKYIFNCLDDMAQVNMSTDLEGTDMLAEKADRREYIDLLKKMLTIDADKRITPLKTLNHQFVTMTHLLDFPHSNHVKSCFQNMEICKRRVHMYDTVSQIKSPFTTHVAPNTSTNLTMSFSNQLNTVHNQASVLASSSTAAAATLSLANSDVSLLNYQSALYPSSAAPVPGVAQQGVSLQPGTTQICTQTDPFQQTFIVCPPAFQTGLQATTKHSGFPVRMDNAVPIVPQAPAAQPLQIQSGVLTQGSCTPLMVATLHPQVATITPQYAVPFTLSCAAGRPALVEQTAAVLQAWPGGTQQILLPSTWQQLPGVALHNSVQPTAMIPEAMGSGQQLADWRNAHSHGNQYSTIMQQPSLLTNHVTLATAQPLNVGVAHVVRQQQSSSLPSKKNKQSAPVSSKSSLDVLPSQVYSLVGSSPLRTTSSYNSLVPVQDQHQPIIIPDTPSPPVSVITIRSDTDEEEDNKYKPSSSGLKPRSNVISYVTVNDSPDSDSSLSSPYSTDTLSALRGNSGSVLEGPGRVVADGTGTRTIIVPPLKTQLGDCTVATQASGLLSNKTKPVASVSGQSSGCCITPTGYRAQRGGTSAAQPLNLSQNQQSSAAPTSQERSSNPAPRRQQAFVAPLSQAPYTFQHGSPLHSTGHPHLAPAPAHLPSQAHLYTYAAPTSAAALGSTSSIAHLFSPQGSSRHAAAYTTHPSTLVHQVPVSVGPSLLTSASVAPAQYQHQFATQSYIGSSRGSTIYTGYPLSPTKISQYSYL

Q: Which inhibition [1] does the source give for C=CC(=O)Nc1cccc(C(=O)c2sc(Nc3ccc(N4CCN(C)CC4)cc3)nc2N)c1 here?
A: Active

Q: And the inhibition [2]?
A: Active

Q: What about the IC50 [3] of the same compound?
A: Nd(Insoluble)

Q: And the Ki [3]?
A: Nd(Insoluble)

Q: What does the source list for COc1ccc(N)cc1-c1cnc(N)c(C(=O)c2cccnc2)n1?
A: inhibition [4]: Active; inhibition [5]: Active; inhibition [1]: Active; inhibition [6]: Active; Activity [7]: 24%; inhibition [2]: Active; IC50 ([3]; read-out: IC50): > 6 µM; Ki ([3]; read-out: Ki): > 2.8 µM; Activity [8]: 5 to 10 µM; inhibition [9]: Active

Q: CN1C(=O)[C@H]2CCC[C@H]2N(C2CCCC2)c2nc(Nc3ccc(C(N)=O)cc3)ncc21 was tested. Which inhibition [1] did it give?
A: Active

Q: What about the inhibition [10] of the same compound?
A: Active

Q: And the Activity [7]?
A: 15%

Q: What about the inhibition [11] of the same compound?
A: Active

Q: What about the IC50 ([3]; read-out: IC50) of the same compound?
A: 4.2 µM

Q: And the Ki ([3]; read-out: Ki)?
A: 2.02 µM

Q: And the Activity [8]?
A: 0.5 to 1 µM

Q: What about the fold change (FC) [12] of the same compound?
A: 2

Q: What about the inhibition [13] of the same compound?
A: Active

Q: How did the inhibition [1] turn out when C=CC(=O)Nc1ccc(C(=O)c2sc(Nc3ccc(N4CCN(C)CC4)cc3OC)nc2N)cc1 was run?
A: Dose-dependent effect

Q: What about the Activity [7] of the same compound?
A: 4%

Q: And the inhibition [2]?
A: Active

Q: What about the IC50 ([3]; read-out: IC50) of the same compound?
A: 1.2 µM

Q: And the Ki ([3]; read-out: Ki)?
A: 0.575 µM

Q: What about the Activity [8] of the same compound?
A: inactive

Q: O=C(NCCN1CCOCC1)Nc1cccc(-c2ccc3nc(NC(=O)C4CC4)sc3n2)c1 was tested. Which inhibition [1] did it give?
A: Active

Q: What about the Activity [7] of the same compound?
A: 11%

Q: And the inhibition [14]?
A: Active

Q: What about the inhibition [2] of the same compound?
A: Active

Q: And the inhibition [15]?
A: Active

Q: What about the IC50 ([3]; read-out: IC50) of the same compound?
A: 3.5 µM

Q: And the Ki ([3]; read-out: Ki)?
A: 1.68 µM

Q: And the Activity [8]?
A: > 20 µM

Q: And the inhibition [16]?
A: Active

Q: What does the source list for O=c1ccc2cnc3ccc(-c4cn[nH]c4)cc3c2n1-c1ccc(F)cc1C(F)(F)F?
A: inhibition [17]: Active; inhibition [18]: Active; inhibition [19]: Active; inhibition [1]: Active; Activity [7]: 2%; inhibition [20]: Active; inhibition [21]: Active; fold change (FC) [22]: 2; inhibition [23]: Active; inhibition [24]: Active; inhibition [25]: Active; IC50 ([3]; read-out: IC50): 0.532 µM; Ki ([3]; read-out: Ki): 0.252 µM; Activity [8]: 0.05 to 0.1 µM; inhibition [26]: Active

Q: Which inhibition [1] does the source give for NS(=O)(=O)c1ccc(-c2cnc3[nH]cc(-c4cccnc4)c3c2)cc1 here?
A: Dose-dependent effect

Q: What about the Activity [7] of the same compound?
A: 0%

Q: And the IC50 ([3]; read-out: IC50)?
A: 0.216 µM

Q: And the Ki ([3]; read-out: Ki)?
A: 0.104 µM

Q: And the Activity [8]?
A: 1 to 5 µM

Q: And the inhibition [8]?
A: Dose-dependent effect

Q: Which inhibition [1] does the source give for COc1cc(N2CCN(C)CC2)ccc1Nc1nc(N)c(C(=O)c2ccccc2)s1 here?
A: Dose-dependent effect

Q: What about the Activity [7] of the same compound?
A: 1.3%

Q: And the IC50 ([3]; read-out: IC50)?
A: 0.8 µM

Q: What about the Ki ([3]; read-out: Ki) of the same compound?
A: 0.383 µM

Q: And the Activity [8]?
A: 10 to 20 µM

Q: With Nc1cccc(-c2cnc3[nH]cc(-c4cccnc4)c3c2)c1 as the compound, how does the inhibition [1] read?
A: Dose-dependent effect

Q: What about the Activity [7] of the same compound?
A: 0%

Q: What about the IC50 ([3]; read-out: IC50) of the same compound?
A: 0.329 µM

Q: What about the Ki ([3]; read-out: Ki) of the same compound?
A: 0.158 µM

Q: What about the Activity [8] of the same compound?
A: 5 to 10 µM
